Experimental data: patent US20240352419A1, “METHODS AND COMPOSITIONS FOR DIFFERENTIATION OF PLURIPOTENT STEM CELLS AND DERIVED HEMATOPOIETIC LINEAGE CELLS” (NUWACELL BIOTECHNOLOGIES CO., LTD., priority 2022, published 2024)

Columns and labels:
hiPSCs = test: Directed differentiation of hiPSCs into HE, HP and iNK cells (flow cytometry KDR, CD34, CD56); format: cell-based, human; conditions: for output of CD34+ HP cells / output of CD56+ iNK cells: added during Stage 1-4 (XAV939 5 μM, SB431542 6 μM); for output of CD34+ HP cells: Day 10, vs control, FIG. 8A; for output of CD56+ iNK cells: Day 25, vs control, FIGS. 8B and 8C
Experimental: hiPSCs were prepared as described in CN108373998B. On Day −1, Embryoid body (EB) formation (Stage 1-1) was carried out by placing individualized hiPSCs in E8 medium containing 10 μM Blebbistatin in T25 flasks on a bellydancer and culture overnight. On Day 0, lateral mesoderm differentiation (Stage 1-2) was initiated by changing the medium to a Stage 1-2 differentiation medium comprising indicated basal medium (see Table 2.1) and supplemented with BMP4 (25 ng/ml), VEGF (50 ng/mL), bFGF (0.5 ng/ml) and CHIR99021 (4 μM) for 2 days. On Day 2, lateral mesoderm differentiation (Stage 1-3) continued for 1 day in a Stage 1-3 differentiation medium comprising indicated basal medium and supplemented with BMP4 (25 ng/mL), VEGF (50 ng/ml) and bFGF (0.5 ng/ml) and CHIR99021 (1 μM). On Day 3, HE specification (Stage 1-4) was initiated by adding a Stage 1-4 differentiation medium comprising indicated basal medium and supplemented with VEGF (50 ng/mL), bFGF (5 ng/mL), XAV939 (5 μM) for 1 day. On Day 4 (the end of Stage 1-4), EBs were dissociated into single cells and stained with KDR-APC antibody, the percentage of KDR^+ cells were detected by flow cytometry. HP differentiation (Stage 1-5) in was initiated by adding a Stage 1-5 differentiation medium comprising indicated basal medium and supplemented with SCF (10 ng/ml), Flt3L (10 ng/ml), VEGF (15 ng/ml) and bFGF (5 ng/mL) for 3 days. On Day 7 (the end of Stage 1-5), EBs were dissociated into single cells and stained with CD34− APC antibody, the percentage of CD34^+ HP cells was detected by flow cytometry. To initiate the differentiation from HP cells into iNK cells (Stage 2), EBs were collected and seeded in 6-well-plates coated with matrix proteins, DLL4 and VCAM1, in a Stage 2 differentiation medium comprising NKSFM and supplemented with SCF (20 ng/mL), Flt3L (10 ng/mL), IL-7 (25 ng/mL, Peprotech), IL-3 (5 ng/mL, Peprotech), IL-2 (700 IU/mL), IL-15 (10 ng/mL, Peprotech) for 14 days. On Day 21 (Stage 2-wk2), derived cells were counted and stained with CD56-PE antibody, the percentage of CD56^+ iNK cells were detected by flow cytometry. […] This improvement is attributed to the addition of NAM, PLT and Heparin sodium in NKSFM as compared with IF-4.
hiPSCs were prepared as described in CN108373998B. Basal medium used during Stage 2 of differentiation was also evaluated. On Day-1, Embryoid body (EB) formation (Stage 1-1) was carried out by placing individualized hiPSCs in E8 medium containing 10 μM Blebbistatin in T25 flasks on a shaker and cultured overnight. On Day 0, lateral mesoderm differentiation (Stage 1-2) was initiated by changing the medium to a Stage 1-2 differentiation medium comprising IF-4 basal medium and supplemented with BMP4 (25 ng/mL), VEGF (15 ng/mL), bFGF (0.5 ng/mL) and CHIR99021 (4 μM) for 2 days. On Day 2, lateral mesoderm differentiation (Stage 1-3) continued for 1 day in a Stage 1-3 differentiation medium comprising IF-4 basal medium and supplemented with BMP4 (25 ng/ml), VEGF (15 ng/mL) and bFGF (0.5 ng/mL) and CHIR99021 (4 μM). On Day 3, HE specification (Stage 1-4) was initiated by adding a Stage 1-4 differentiation medium comprising IF-4 basal medium and supplemented with VEGF (15 ng/mL), bFGF (5 ng/ml), SB431542 (6 μM) for 1 day. On Day 4 (the end of Stage 1-4), EBs were dissociated into single cells and stained with KDR-APC antibody, the percentage of KDR+ cells was detected by flow cytometry. HP differentiation (Stage 1-5) in was initiated by adding a Stage 1-5 differentiation medium comprising NKSFM and supplemented with SCF (50 ng/ml), Flt3L (10 ng/mL), VEGF (15 ng/mL) and bFGF (5 ng/mL) for 5 days. […]

PBNK cells = test: Expansion of PBNK cells from PBMCs (expansion fold, CD56+CD3- percentage by flow cytometry); format: cell-based; conditions: effect of NAM concentration (0-5 mM) in basal medium
Experimental: The effect of the concentration of nicotinamide (NAM) in an exemplary basal medium on NK cell expansion was evaluated. The above basal medium comprised the following components: IMDM (Sigma):RPMI1640 (Gibco) (50%: 50%); about 1.3 ng/ml of Cupric sulfate, about 3 μM of Ferric sulfate, about 0.432 μg/mL of Zinc sulfate, about 1˜50 ng/ml of Na Selenite, about 110 μg/mL of Sodium pyruvate, 0.1˜20 μg/mL of Insulin, 1˜200 μg/mL of Transferrin, about 1% (v/v) of GlutaMAX-1, 0.1˜20 mg/mL of HSA, 1˜400 μM of MTG, about 80 μg/mL of Ascorbic acid and indicated concentration of NAM. Peripheral blood mononuclear cells (PBMCs) were isolated by density gradient centrifugation using Ficoll-Paque. On Day 0, PBMCs were plated at 1×10^6 cells/mL in a 48-well-plate in the basal medium with NAM (either 0, 1, 2, 2.5, 3, 3.5, 4, or 5 mM) and stimulated with the following reagents for 3 days: immobilized CD16 antibody (Biolegend, 302014) (135 ng/cm^2), IL-2 (700 IU/mL), IL-15 (10 ng/ml) and OK432 (0.01 KE/mL). On day 3, cells were re-suspended in the above basal medium supplemented with IL-2 (700 IU/mL) and IL-15 (10 ng/mL). Fresh medium was added every other day to maintain cell density below 2×10^6 cells/mL. Cells were collect on Day 14 and stained with CD56-PE and CD3-PerCP-Cy5.5 antibodies, the percentage of CD56^+CD3^− NK cells was analyzed by flow cytometry.
The effect of heparin sodium concentration in an exemplary NKSFM on NK cell expansion was also evaluated. NKSFM comprised the following components: IMDM (Sigma):DMEM/F12 (Gibco) (50%: 50%); about 20 μM of Ethanolamine, about 1˜50 ng/ml of Na Selenite, about 110 μg/mL of Sodium pyruvate, 0.1˜20 μg/mL of Insulin, 1˜200 μg/mL of Transferrin, about 1% (v/v) of GlutaMAX-1, 0.1˜20 mg/mL of Human serum albumin, 1˜400 μM of MTG, about 80 μg/mL of Ascorbic acid, about 1˜5 mM of NAM, 4% (v/v) of PLT, and indicated concentration of heparin sodium. PBMCs were isolated by density gradient centrifugation using Ficoll-Paque. On Day 0, PBMCs were plated at 1×10^6 cells/mL in a 48-well-plate in NKSFM with heparin sodium (0, 0.5, 1, 3, 10, 30, or 50 μg/mL) and stimulated with the following reagents for 3 days: immobilized CD16 antibody (Biolegend, 302014) (135 ng/cm^2), OK432 (0.01 KE/mL), NeoIL-2 (50 ng/ml), IL-12 (10 ng/mL), IL-18 (50 ng/mL). […] Cells were collect on Day 13 and stained with CD56-PE and CD3-PerCP-Cy5.5 antibodies, the percentage of CD56^+CD3^− NK cells was analyzed by flow cytometry. The specific lysis of K562 tumor cells by NK cells were assessed by CFSE/7-AAD cytotoxicity assay. […] After incubation for 4 hours, cells were stained with 7-AAD (Live/dead staining) and analyzed with flow cytometry.
The effect of PLT percentage (v/v) in an exemplary NKSFM on NK cell expansion was evaluated. […]

[1] = higher VEGF concentration during Stage 1-5

Compound: Cc1c[nH]c(-c2cnc(NCCNc3ccc(C#N)cn3)nc2-c2ccc(Cl)cc2Cl)n1 [CHIR99021]
- differentiation into CD34+ HP cells (hiPSCs; higher concentration of CHIR99021 (5-8 μM) during Stage 1-2, FIG. 9A): generally more advantageous
- differentiation into CD56+ iNK cells (hiPSCs; higher concentration of CHIR99021 (5-8 μM) during Stage 1-2, FIGS. 9B and 9C): somewhat disadvantageous
- differentiation into CD34+ HP cells (hiPSCs; lower concentration of CHIR99021 (0-4 μM) during Stage 1-3, FIG. 10A): somewhat disadvantageous
- differentiation into CD56+ iNK cells (hiPSCs; lower concentration of CHIR99021 (0-4 μM) during Stage 1-3, FIGS. 10B and 10C): generally more advantageous

Compound: NC(=O)c1cccnc1 [NAM, nicotinamide]
- NK cell expansion fold (PBNK cells; Day 14, FIG. 2A): significantly impacts
- percentage of CD56+CD3− NK cells (PBNK cells; Day 14, FIG. 2B): minimal effects

Compound: NC(=O)c1ccc(-c2nc(-c3ccc4c(c3)OCO4)c(-c3ccccn3)[nH]2)cc1 [SB431542]
- output of CD34+ HP cells (hiPSCs): improvement in increasing CD34^+ HP cell production at a certain degree
- output of CD56+ iNK cells (hiPSCs): does not show any improvement

Compound: Oc1nc(-c2ccc(C(F)(F)F)cc2)nc2c1CSCC2 [XAV939]
- output of CD34+ HP cells (hiPSCs): significantly promotes
- output of CD56+ iNK cells (hiPSCs): significantly promotes

Compound: VEGF
- percentage of KDR+ HE cells (hiPSCs; different VEGF concentration (15-100 ng/mL) in Stage 1, FIG. 11A): minimal effects
- percentage of CD34+ HP cells (hiPSCs; different VEGF concentration (15-100 ng/mL) in Stage 1, FIG. 11B): significantly impacts
- efficiency of further differentiation into iNK cells (hiPSCs; different VEGF concentration (15-100 ng/mL) in Stage 1, cell morphology, FIG. 11C): significantly impacts
- differentiation into HP cells and iNK cells (hiPSCs; higher VEGF concentration during Stage 1-2 and Stage 1-3): generally beneficial
- differentiation into HP cells (hiPSCs; [1]): generally beneficial
- differentiation into iNK cells (hiPSCs; [1]): but not into iNK cells
- HP and iNK cell differentiation (hiPSCs; higher concentration of VEGF during Stage 1, especially Stage 1-2, 1-3 and 1-4, FIG. 12): significantly improves
